Consider three compounds from patent US8030304B2, “Thiazole pyrazolopyrimidines CRF1 receptor antagonists” (Eli Lilly and Company, priority 2006, dated 2011).

In one data set the target is T1, human CRF2 (Homo sapiens, UniProt Q13324).
T1 construct: expressed in transfected cells
T1 sequence (Q13324 1-411): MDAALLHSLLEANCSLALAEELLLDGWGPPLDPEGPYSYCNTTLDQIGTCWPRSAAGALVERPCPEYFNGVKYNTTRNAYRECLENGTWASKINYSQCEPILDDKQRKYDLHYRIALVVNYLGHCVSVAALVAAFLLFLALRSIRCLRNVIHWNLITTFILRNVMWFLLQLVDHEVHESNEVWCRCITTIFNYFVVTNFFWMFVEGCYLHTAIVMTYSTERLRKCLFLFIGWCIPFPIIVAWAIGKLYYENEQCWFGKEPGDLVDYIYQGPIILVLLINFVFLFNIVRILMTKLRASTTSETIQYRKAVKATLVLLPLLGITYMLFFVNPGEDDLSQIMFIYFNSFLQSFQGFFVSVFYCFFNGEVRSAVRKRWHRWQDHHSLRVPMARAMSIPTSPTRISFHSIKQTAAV
Briefly: CRF2 filter binding assay. Conditions: at a concentration of 50 μM. The procedure: CRF2 Filter Binding Assay
The limitations of plasmid-based human CRF2 expression, in terms of generating a recombinant cell line with sufficient receptor density to develop a binding assay, are overcome by using a Phoenix retroviral expression system licensed from Stanford. The stable HEK-hCRF2 cell line is used to prepare membranes and binding reactions (200 μL) are set up as follows: 50 μL of ^125I-sauvagine (0.2 nM final concentration), 50 μL compound and 100 μL CRF2 membrane (25 μg/reaction). The reactions are incubated at room temperature for 2 hours and then terminated by filtration through pre-treated FB Millipore glass fiber filter plates (96 well). The plates are washed twice with ice-cold assay buffer (50 mM tris, 12.5 mM NaCl, 1 mM EDTA, 10 mM MgCl2, 0.05% BSA, pH 7.2), air dried over night and counted with 100 μL Microscint 40 in a MicroBeta counter. Non-specific binding (NSB) is determined in the presence of 0.5 μM non-labeled sauvagine. Alternatively, compounds are evaluated using a Scintillation Proximity assay. […] Bound radioactivity is assessed using a Wallac Trilux scintillation counter. Binding is assessed typically using triplicate determinations and the median data points plotted by Graph Pad Prism. […]

For the next data set, the target named is T2, human CRF1 (Homo sapiens, UniProt P34998).
T2 construct: expressed in transfected cells
T2 sequence (P34998 24-415): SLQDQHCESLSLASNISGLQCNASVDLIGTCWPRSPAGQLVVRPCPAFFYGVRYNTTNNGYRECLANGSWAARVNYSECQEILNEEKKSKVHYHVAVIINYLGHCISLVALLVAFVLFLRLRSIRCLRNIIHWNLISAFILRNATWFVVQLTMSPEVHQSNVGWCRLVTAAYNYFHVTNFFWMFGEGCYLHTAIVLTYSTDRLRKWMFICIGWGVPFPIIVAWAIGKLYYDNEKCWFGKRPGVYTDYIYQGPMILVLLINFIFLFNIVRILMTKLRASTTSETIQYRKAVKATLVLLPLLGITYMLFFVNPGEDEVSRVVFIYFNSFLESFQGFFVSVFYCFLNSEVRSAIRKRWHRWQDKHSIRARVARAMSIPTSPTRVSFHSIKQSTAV
As to the kind of experiment: CRF1 filter binding assay. Conditions: HEK-hCRF1 membranes, 125I-sauvagine; read-out: Ki (inhibition constant). As to the method:
CRF1 Filter Binding Assay
The limitations of plasmid-based human CRF1 expression, in terms of generating a recombinant cell line with sufficient receptor density to develop a binding assay, are overcome by using a Phoenix retroviral expression system licensed from Stanford. The stable HEK-hCRF1 cell line is used to prepare membranes and binding reactions (200 μL) are set up as follows: 50 μL of ^125I-sauvagine (0.2 nM final), 50 μL compound and 100 μL CRF1 membrane (25 μg/reaction). The reactions are incubated at room temperature for 2 h and then terminated by filtration through pre-treated FB Millipore glass fiber filter plates (96 well). The plates are washed twice with ice-cold assay buffer (50 mM tris, 12.5 mM NaCl, 1 mM EDTA, 10 mM MgCl2, 0.05% BSA, pH 7.2), air dried over night and counted with 100 μL Microscint 40 in a MicroBeta counter. Non-specific binding (NSB) is determined in the presence of 0.5 μM non-labeled sauvagine. Triplicate determinations are typically run and the median data points plotted by Graph Pad Prism.

The nature of the next data set: in vivo. Conditions: male, Sprague Dawley, rat, iv.
In data set [1] the target is T3, binding of 125I-sauvagine to the cerebellum (Rattus norvegicus, UniProt P35353).
T3 construct: from tissue; host or cells: rat cerebellum
T3 sequence (P35353 24-415): T2 sequence (P34998 24-415) with H6R, S9N, A13T, I16V, M153V, G163A, I209V, Y229H, H356R
Briefly: In vivo potency assessment using ex vivo binding. To be noted: oral route. As to the method: In Vivo Potency Assessment Using Ex Vivo Binding
To assess in vivo potency, a compound of the present invention is evaluated using ex vivo binding. Using the procedures as provided in D. R. Gehlert et al., EJP 509: 145-153 (2005), a compound is administered to a rat via the oral route.

Data set [2] in a line: Bioavailability and pharmacokinetic properties (volume of distribution, plasma clearance).
Source text: Bioavailability and Pharmacokinetic Properties
The volume of distribution (Vdist) relates the amount of the drug in the body to the concentration of the drug in the blood or plasma. […] The volume of distribution reflects the extent to which the drug is present in the extravascular tissue. A large volume of distribution reflects the tendency of a compound to bind to the tissue components compared with plasma protein binding.
To test for volume of distribution, Male Sprague Dawley rats (N=3) are administered a single 1 mg/kg intravenous dose of compound. Multiple plasma samples are collected at time points from 0.08 to 24 hours post-dose. The plasma samples are analyzed by LC/MS/MS to determine the plasma concentrations. Plasma pharmacokinetic calculations are performed to determine the pharmacokinetic parameters including Vdist and plasma clearance (Clp).
Further, the plasma clearance (CLp) is a measure of the rate of removal of the drug from the body. Following an intravenous dose and first-order kinetics, the plasma clearance may be determined using the following equation: CLp=Dose/AUC, where
AUC is the total area under the curve that describes the concentration of the drug in the plasma as a function of time from zero to infinity.
Where [3] appears, read: male, Sprague Dawley, rat, plasma, iv, 1 mg/kg.

Substitutions are numbered along the chain they refer to.

As usually defined, the inhibition is the share of the control response that was lost under treatment. The term Ki denotes a measure of affinity in units of concentration, obtained from inhibition or displacement. For orientation: clearance means a measure of how efficiently the substance is removed, as volume per time. The low end stands for inefficient removal, the high end for efficient removal. In general, Vd refers to the apparent volume that relates the amount in the body to the concentration in plasma or blood. High values mean extensive tissue distribution, low ones confinement near the circulation. Consider `CCC(CC)c1cc(C)nc2c(-c3sc(N(C)C)nc3Cl)c(C)nn12` [Example 15, {4-Chloro-5-[7-(1-ethyl-propyl)-2,5-dimethyl-pyrazolo[1,5-a]pyrimidin-3-yl]-thiazol-2-yl}-dimethyl-amine], for which, at human CRF2, the inhibition at 50 µM is 11%. In addition, the Ki at human CRF1 was determined as 6.2 nM. This compound displayed a clearance in the data set “in vivo” of 23.6 mL/min/kg. Further, the Vd in “in vivo” (1 mg/kg) is 7.2 L/kg. The compound also registered an inhibition at 10 mg/kg in data set [1] of 65%.

In data set [2] (setting [3]), `CCCCN(CC)c1nc(C)nc2c1c(C)cn2-c1c(C)cc(C)cc1C` [CP154526] registered a distribution volume (Vd) of 114 L/kg and a clearance of 83 mL/min/kg.

In the case of `CCCN(CCC)c1cc(C)nc2c(-c3cnc(N(C)C)cc3C)c(C)nn12` [NBI30775], the “rat Vdist (volume of distribution)” value in data set [2] (single intravenous dose of 1 mg/kg, analyzed separately) worked out at 76 L/kg.
